{
  "source": "patent US20240091366A1",
  "about": "“NOVEL ACID-SENSITIVE APTAMER TRIPTOLIDE CONJUGATE AND APPLICATIONS” (priority 2022, published 2024)",
  "key": {"tumor cells": {"tested_on": "tumor cells", "conditions": "background art; cited from earlier work"}, "[1]": {"test": "Body weight during administration, colon cancer model", "conditions": "mouse, in vivo", "experimental": "Female nude mice were reared for 6-7 weeks under standard environment, colon cancer cells HCT116 were suspended in serum-free medium, and each mouse was inoculated with 5*10^6 tumor cells. When the tumor volume reached 50-100 mm^3, the mice were randomly divided into 4 groups, and were injected with aptamer triptolide conjugate, triptolide, and aptamer by tail vein, respectively, 12 mice in each group. A PBS negative control group was set up. […] The drugs were administered once every 2 days for 8 consecutive doses, and the experiment was ended 24 hours after the last dose. At the end of the experiment, the animals were executed by breaking the cervical vertebrae, and the tumors were stripped and weighed to calculate the tumor growth inhibition rate of the drug. The t-test was used to compare the tumor weight, tumor volume, RTV and other indexes of the animals in each group."}, "[2]": {"tested_on": "colon cancer cell line HCT116", "test": "MTT assay, cell proliferation inhibition", "assay_type": "cell-based", "conditions": "48 h", "from_the_text": "(§1) Material: aptamer triptolide conjugate (AS1411-TP). Triptolide (TP) was provided by Shanghai Yaji Biotechnology Co. Ltd; aptamer (AS1411) was obtained from Chengdu Pilot Drug Development Co. Ltd; trypsin, thiazolyl blue (MTT) (Biofroxx, Germany); dimethyl sulfoxide (DMSO) (MP Biomedicals, France); fetal bovine serum (FBS) (Newzerum, New Zealand); DMEM medium, RPMI1640 medium, Petri dishes, 96-well plates (Corning, USA); colon cancer cells HCT116, breast cancer cells MDA-MB-231, non-small-cell lung cancer cells A549, pancreatic cancer cells PANC-1, and hepatocellular carcinoma cells HepG2 were purchased from the Shanghai Cell Bank of the Chinese Academy of Sciences and preserved in the laboratory.\n(§2) Take the tumor cells HCT116, MDA-MB-231, A549, PANC-1 and HepG2 cell lines from the liquid nitrogen tank, place them in a 37° C. water bath, wait for the frozen cells to melt into cell suspension, centrifuge the cells at 1000 r/min for 3 min, discard the supernatant, add 1 ml of fresh complete medium containing 10% fetal bovine serum and 1% double antibody to mix the cells, then add 5 ml of medium, gently and repeatedly blowing the cells with a pipette gun to make them mix well. Then add 5 ml of medium, blow the cells gently and repeatedly with a pipette gun to mix them well, and finally transfer the cell suspension to a […] and label the cell name, cell number, date of resuscitation and the operator's name, and place it in a cell culture incubator for cultivation. (HCT116, PANC-1 and HepG2 cell lines were cultured in DMEM medium, while MDA-MB-231 cell line and A549 cell line were cultured in RPMI1640 medium).\n(§3) Take HCT116, MDA-MB-231, A549, PANC-1, HepG2 cells with good growth status, remove the medium, add 1 ml of sterile PBS to wash, add 1.5 ml of trypsin to digest the cells, about 2 min later the cells become round and fall off, add 1.5 ml of medium to terminate the digestion, transfer it to centrifugal tube, centrifuge at 1000 r/min for 3 min, discard the supernatant, add 1 ml of fresh medium to resuspend, then add fresh medium for 1:3 distribution to other culture dishes, and label the date of transmission and the number of generations. Place in the cell culture incubator for cultivation.\n(§4) Take HCT116, MDA-MB-231, A549, PANC-1, HepG2 cells with good growth status, by the same operation as the cell passaging experiment, after cell resuspension, cell counting with hemocyte counting plate, with 2500 cells/well, plant in 96-well plate, after 24 h of cell culture, remove the original medium, add medium containing different concentrations of drugs and continue to cultivate for 48 hours. After 24 h of cell culture, the original medium was removed and the medium containing different concentrations of drugs was added to continue the culture for 48 hours. […] The above steps were repeated three times."}, "[3]": {"tested_on": "pancreatic cancer cell line PANC-1", "test": "MTT assay, cell proliferation inhibition", "assay_type": "cell-based", "conditions": "48 h", "from_the_text": "as §1, §2, §3, §4"}, "[4]": {"tested_on": "lung adenocarcinoma cell line A549", "test": "MTT assay, cell proliferation inhibition", "assay_type": "cell-based", "conditions": "48 h, samples 1-3", "from_the_text": "as §1, §2, §3, §4"}},
  "note": "Several values for one entry are separate records, joined by “and”; a condition that tells them apart may be missing. Identical values can stand only once.",
  "data": [
    {"smiles": "CC(C)[C@]12O[C@H]1[C@@H]1O[C@]13[C@]1(O[C@H]1C[C@H]1C4=C(CC[C@@]13C)C(=O)OC4)[C@@H]2O", "note": "[TP, Triptolide]", "values": [
      {"measurement": "concentration effectively inhibiting the proliferation of tumor cells", "setting": "tumor cells", "value": "2 to 10", "unit": "ng/mL"},
      {"measurement": "body weights of mice", "setting": "[1]", "value": "basically maintained in the tolerable range of animal toxicity and side-effects"},
      {"measurement": "cell proliferation inhibition rate", "setting": "[2]; HCT116, 6.3 nM, samples 1-3, 0.0063 µM", "value": "20.0440 and 13.1188"},
      {"measurement": "cell proliferation inhibition rate", "setting": "[2]; HCT116, 12.5 nM, samples 1-3, 0.0125 µM", "value": "43.4099 and 47.0957"},
      {"measurement": "cell proliferation inhibition rate", "setting": "[2]; HCT116, 25.0 nM, samples 1-3, 0.025 µM", "value": "66.2973 and 50.7426"},
      {"measurement": "cell proliferation inhibition rate", "setting": "[2]; HCT116, 50.0 nM, samples 1-3, 0.05 µM", "value": "79.2127 and 76.2156"},
      {"measurement": "cell proliferation inhibition rate", "setting": "[2]; HCT116, 100.0 nM, samples 1-3, 0.1 µM", "value": "80.3075 and 88.8251"},
      {"measurement": "cell proliferation inhibition rate", "setting": "[2]; HCT116, 200.0 nM, samples 1-3, 0.2 µM", "value": "98.8058 and 98.5677"},
      {"measurement": "inhibition at 0.0063 µM", "setting": "[2]; Homo sapiens, HCT-116, 48 h, HCT116, 6.3 nM, samples 1-3, read-out: cell proliferation inhibition rate", "value": 24.7, "unit": "%"},
      {"measurement": "inhibition at 0.0125 µM", "setting": "[2]; Homo sapiens, HCT-116, 48 h, HCT116, 12.5 nM, samples 1-3, read-out: cell proliferation inhibition rate", "value": 42.1, "unit": "%"},
      {"measurement": "inhibition at 0.025 µM", "setting": "[2]; Homo sapiens, HCT-116, 48 h, HCT116, 25.0 nM, samples 1-3, read-out: cell proliferation inhibition rate", "value": 54.9, "unit": "%"},
      {"measurement": "inhibition at 0.05 µM", "setting": "[2]; Homo sapiens, HCT-116, 48 h, HCT116, 50.0 nM, samples 1-3, read-out: cell proliferation inhibition rate", "value": 75.6, "unit": "%"},
      {"measurement": "inhibition at 0.1 µM", "setting": "[2]; Homo sapiens, HCT-116, 48 h, HCT116, 100.0 nM, samples 1-3, read-out: cell proliferation inhibition rate", "value": 83, "unit": "%"},
      {"measurement": "inhibition at 0.2 µM", "setting": "[2]; Homo sapiens, HCT-116, 48 h, HCT116, 200.0 nM, samples 1-3, read-out: cell proliferation inhibition rate", "value": 97.2, "unit": "%"},
      {"measurement": "IC50", "setting": "[2]; Homo sapiens, HCT-116, colon cancer cells HCT116, MTT", "value": "18.88 ± 0.13", "unit": "nM"},
      {"measurement": "inhibition at 0.0031 µM", "setting": "[3]; Homo sapiens, PANC-1, 48 h, PANC-1, 3.1 nM, samples 1-3, read-out: cell proliferation inhibition rate", "value": 31.2, "unit": "%"},
      {"measurement": "inhibition at 0.0063 µM", "setting": "[3]; Homo sapiens, PANC-1, 48 h, PANC-1, 6.3 nM, samples 1-3, read-out: cell proliferation inhibition rate", "value": 36, "unit": "%"},
      {"measurement": "inhibition at 0.0125 µM", "setting": "[3]; Homo sapiens, PANC-1, 48 h, PANC-1, 12.5 nM, samples 1-3, read-out: cell proliferation inhibition rate", "value": 49.2, "unit": "%"},
      {"measurement": "inhibition at 0.025 µM", "setting": "[3]; Homo sapiens, PANC-1, 48 h, PANC-1, 25.0 nM, samples 1-3, read-out: cell proliferation inhibition rate", "value": 59, "unit": "%"},
      {"measurement": "inhibition at 0.05 µM", "setting": "[3]; Homo sapiens, PANC-1, 48 h, PANC-1, 50.0 nM, samples 1-3, read-out: cell proliferation inhibition rate", "value": 64.8, "unit": "%"},
      {"measurement": "inhibition at 0.1 µM", "setting": "[3]; Homo sapiens, PANC-1, 48 h, PANC-1, 100.0 nM, samples 1-3, read-out: cell proliferation inhibition rate", "value": 80.3, "unit": "%"},
      {"measurement": "inhibition at 0.2 µM", "setting": "[3]; Homo sapiens, PANC-1, 48 h, PANC-1, 200.0 nM, samples 1-3, read-out: cell proliferation inhibition rate", "value": 93, "unit": "%"},
      {"measurement": "IC50", "setting": "[3]; Homo sapiens, pancreatic cancer cells PANC-1, MTT", "value": "14.4 ± 0.09", "unit": "nM"},
      {"measurement": "cell proliferation inhibition rate", "setting": "[3]; PANC-1, 3.1 nM, samples 1-3, 0.0031 µM", "value": "30.2815 and 32.0448"},
      {"measurement": "cell proliferation inhibition rate", "setting": "[3]; PANC-1, 6.3 nM, samples 1-3, 0.0063 µM", "value": "37.1753 and 34.7338"},
      {"measurement": "cell proliferation inhibition rate", "setting": "[3]; PANC-1, 12.5 nM, samples 1-3, 0.0125 µM", "value": "47.8196 and 50.5663"},
      {"measurement": "cell proliferation inhibition rate", "setting": "[3]; PANC-1, 25.0 nM, samples 1-3, 0.025 µM", "value": "58.7555 and 59.2302"},
      {"measurement": "cell proliferation inhibition rate", "setting": "[3]; PANC-1, 50.0 nM, samples 1-3, 0.05 µM", "value": "65.1441 and 74.5337"},
      {"measurement": "cell proliferation inhibition rate", "setting": "[3]; PANC-1, 100.0 nM, samples 1-3, 0.1 µM", "value": "81.0105 and 79.6202"},
      {"measurement": "cell proliferation inhibition rate", "setting": "[3]; PANC-1, 200.0 nM, samples 1-3, 0.2 µM", "value": "98.8589 and 97.2313"},
      {"measurement": "cell proliferation inhibition rate", "setting": "[4]; A549, 6.3 nM, 0.0063 µM", "value": "16.7429 and 15.2571"},
      {"measurement": "cell proliferation inhibition rate", "setting": "[4]; A549, 12.5 nM, 0.0125 µM", "value": "29.4400 and 25.9563"},
      {"measurement": "cell proliferation inhibition rate", "setting": "[4]; A549, 25.0 nM, 0.025 µM", "value": "43.2000 and 46.9811"},
      {"measurement": "cell proliferation inhibition rate", "setting": "[4]; A549, 50.0 nM, 0.05 µM", "value": "66.0800 and 68.6718"},
      {"measurement": "cell proliferation inhibition rate", "setting": "[4]; A549, 100.0 nM, 0.1 µM", "value": "84.2971 and 83.2186"},
      {"measurement": "cell proliferation inhibition rate", "setting": "[4]; A549, 200.0 nM, 0.2 µM", "value": "97.0057 and 96.3263"}
    ]}
  ]
}
